Laboratory results from patent publication US12135333B2, “Detection kit for detecting immunosuppressors in whole blood by high performance liquid chromatography-tandem mass spectrometry and detection method thereof” (Hangzhou Calibra Diagnostics Co., Ltd., priority 2021, dated 2024).

Key:
[1] = 14 d stability at 37° C. of isotope internal standards in the internal standard solution with different antioxidants (LC-MS/MS peak area); assay type: physicochemical
From the text: (§1) Supernatant was taken and detected by high performance liquid chromatography-tandem mass spectrometry; and a spectrogram of the standard curve at the lowest point was shown in FIG. 1. Specific analysis conditions were as follows: gradient elution was used to an instrumental method; and the tandem mass spectrum: electrospray ionization (ESI) ion source and positive ion Multiple Reaction Monitoring (MRM) Mode were taken.
(§2) Antioxidants included 2,6-di-tert-butyl-p-cresol, vitamin E, vitamin C, β-carotene, and sodium metabisulfite.

[2] = 14 d stability at 37° C. of immunosuppressors in sterile bovine blood with vitamin E at different concentrations; assay type: physicochemical; conditions: for Decline of concentration (in words): vitamin E 1.0 mg/mL and 1.5 mg/mL
[3] = 14 d stability at 37° C. of immunosuppressors in the system suitability solution with different antioxidants (LC-MS/MS peak area); assay type: physicochemical; conditions: for Change of content (in words): not adding an antioxidant, system suitability solution and internal standard solution
From the text: as §1, §2

[4] = in vitro experiments; cited from earlier work
[5] = 14 d at 37° C., antioxidant 2,6-di-tert-butyl-p-cresol
[6] = 14 d at 37° C., antioxidant P-carotene
[7] = 14 d at 37° C., antioxidant Sodium metabisulfite
[8] = 14 d at 37° C., antioxidant Vitamin C
[9] = 14 d at 37° C., antioxidant Vitamin E
[10] = 14 d at 37° C., free of adding antioxidant
[11] = 14 d at 37° C., vitamin E 0.5 mg/mL
[12] = 14 d at 37° C., vitamin E 1.0 mg/mL
[13] = 14 d at 37° C., vitamin E 1.5 mg/mL
[14] = 14 d at 37° C., antioxidant β-carotene

| Compound | Peak area of internal standard solution [1, 5] | Peak area of internal standard solution [1, 6] | Peak area of internal standard solution [1, 7] | Peak area of internal standard solution [1, 8] | Peak area of internal standard solution [1, 9] | Peak area of internal standard solution [1, 10] | Peak area of internal standard solution ([1]; Initial values) | Sample detection concentration [2, 11] [ng/mL] | Sample detection concentration [2, 12] [ng/mL] | Decline of concentration (in words) ([2]; 14 d at 37° C.) | Sample detection concentration [2, 13] [ng/mL] | Sample detection concentration ([2]; Initial values) [ng/mL] | Peak area of system suitability solution [3, 5] | Peak area of system suitability solution [3, 7] | Peak area of system suitability solution [3, 8] | Peak area of system suitability solution [3, 9] | Peak area of system suitability solution [3, 14] | Peak area of system suitability solution [3, 10] | Change of content (in words) ([3]; 14 d at 37° C.) | Peak area of system suitability solution ([3]; Initial values) | other results |
| --- | --- | --- | --- | --- | --- | --- | --- | --- | --- | --- | --- | --- | --- | --- | --- | --- | --- | --- | --- | --- | --- |
| [2H]C([2H])([2H])O[C@H]1C[C@@H]2CC[C@@H](C)[C@@](O)(O2)C(=O)C(=O)N2CCCC[C@H]2C(=O)O[C@H]([C@H](C)C[C@@H]2CC[C@@H](O)[C@H](OC)C2)CC(=O)[C@H](C)/C=C(\C)[C@@H](O)[C@@H](OC)C(=O)[C@H](C)C[C@H](C)/C=C/C=C/C=C/1C [Sirolimus-d3, sirolimus-d3] | 7033 | 3308 | 5301 | 6664 | 62889 | 3768 | 71424 |  |  |  |  |  |  |  |  |  |  |  |  |  |  |
| [2H][13C]([2H])=CC[C@@H]1/C=C(\C)C[C@H](C)C[C@H](OC)[C@H]2O[C@@](O)(C(=O)C(=O)N3CCCC[C@H]3C(=O)O[C@H](/C(C)=C/[C@@H]3CC[C@@H](O)[C@H](OC)C3)[C@H](C)[C@@H](O)C([2H])([2H])C1=O)[C@H](C)C[C@@H]2OC [Tacrolimus-13C-d4, tacrolimus-13C-d4] | 28579 | 5494 | 5764 | 25618 | 53397 | 6069 | 60178 |  |  |  |  |  |  |  |  |  |  |  |  |  |  |
| CO[C@H]1C[C@@H]2CC[C@@H](C)[C@@](O)(O2)C(=O)C(=O)N2CCCC[C@H]2C(=O)O[C@H]([C@H](C)C[C@@H]2CC[C@@H](OCCO)[C@H](OC)C2)CC(=O)[C@H](C)/C=C(\C)[C@@H](O)[C@@H](OC)C(=O)[C@H](C)C[C@H](C)/C=C/C=C/C=C/1C [Everolimus] |  |  |  |  |  |  |  | 62.1 | 75.3 | no obvious decline | 75.7 | 80.1 | 3533 | 6256 | 11782 | 98290 | 3599 | 2401 | almost dropped dramatically | 111146 | Decrease of concentration [2, 11]: 22.5% |
| C=CC[C@@H]1/C=C(\C)C[C@H](C)C[C@H](OC)[C@H]2O[C@@](O)(C(=O)C(=O)N3CCCC[C@H]3C(=O)O[C@H](/C(C)=C/[C@@H]3CC[C@@H](O)[C@H](OC)C3)[C@H](C)[C@@H](O)CC1=O)[C@H](C)C[C@@H]2OC [Tacrolimus] |  |  |  |  |  |  |  | 73.3 | 80.1 | no obvious decline | 79.0 | 79.7 | 27771 | 8044 | 30470 | 69879 | 8659 | 7408 | almost dropped dramatically | 74430 | Immunological competence relative to cyclosporine A [4]: 50-100 times |
